# According to publication PMC8036666, “Biological and Physico-Chemical Characteristics of Arginine-Rich Peptide Gemini Surfactants with Lysine and Cystine Spacers” (International Journal of Molecular Sciences, 2021):
# Where “and” joins values, the source holds several entries; their conditions need not be identical. Equal values may be shown once. Read-outs that look alike come from different tables or passages of the source. Where a SMILES comes first, the peptide text is derived from it. Bridges are numbered along the chain shown (N, C = ends). Roman numbers before positions name the chains, in order. Side-chain parts run from the residue outwards. [ ]: non-standard residue; d: D form. The star is where a group is joined. Myristoyl = CCCCCCCCCCCCCC(=O)*; Lauroyl = CCCCCCCCCCCC(=O)*; Decanoyl = CCCCCCCCCC(=O)*; Nle = CCCC[C@H](N)C(=O)O; Octanoyl = CCCCCCCC(=O)*
# Assays:
# C. albicans ATCC 10231 = settings: ATCC 10231, 24 h
# Method: (§1) The Acinetobacter baumannii ATCC BAA-1605, Enterococcus faecium ATCC 700221, Escherichia coli ML-35 ATCC 43827, Klebsiella aerogenes ATCC 13048, Klebsiella pneumoniae ATCC 700603, Pseudomonas aeruginosa ATCC 9027, Staphylococcus aureus ATCC 25923, Staphylococcus aureus ATCC 33591, Candida albicans ATCC 10231, Candida glabrata ATCC 15126, strains were acquired from the American Type Culture Collection (ATCC). All the strains were stored at −80 °C in Roti-Store cryo vials and before the tests were transferred into fresh Mueller–Hinton broth (MHB, Biocorp, Warsaw, Poland) for bacteria or RPMI-1640 (Sigma-Aldrich, Steinheim, Germany) for fungi and incubated for 24 h at 37 °C. Then, the cultures were seeded on the Mueller–Hinton agar (BioMaxima, Lublin, Poland) or Sabouraud dextrose agar (SDA, BioMaxima, Lublin, Poland) plates, respectively, and incubated as just mentioned. These agar cultures were used for further microbiological assays. Cell densities for all assays were adjusted spectrophotometrically (Multiskan GO Microplate Spectrophotometer, Thermo Fisher Scientific, Vantaa, Finland) at 600 and 530 nm for bacteria and fungi, respectively.
# (§2) The MICs were determined by the broth microdilution method according to the Clinical and Laboratory Standard Institute guidelines. For this purpose, initial inoculums of bacteria (5 × 10^5 CFU/mL) in MHB and yeasts (2 × 10^3 CFU/mL) in RPMI-1640 with 2% D-glucose were exposed to the ranging concentration of lipopeptides (0.5–256 μg/mL) and incubated at 37 °C for 18 h and 24 h, respectively. The experiments were conducted on 96-well microtiter polystyrene plates (Kartell, Noviglio, Italy). The growth was assessed visually after incubation, and the MIC was assumed as the lowest peptide concentration at which a noticeable growth of microorganisms was inhibited. All experiments were conducted in triplicate.
# C. glabrata ATCC 15126 = settings: ATCC 15126, 24 h
# Method: as §1, §2
# HaCaT cells = format: cell-based, human; settings: 24 h
# Method: Cells were trypsinized, and the medium was renewed 2–3 times per week. The cytotoxicity of compounds was assessed by the determination of cell metabolic activity by colorimetric CellTilter 96® Aqueous One Solution Cell Proliferation Assay (Promega, Madison, WI, USA), according to the manufacturer’s instructions. […] Every compound was medium-soluble in 37 °C; thus, the control cells were cultured with the medium. Serial dilutions of the tested compounds were always prepared prior to use. Cells were incubated with drugs for 24 h, and then, 20 μL of the CellTiter 96®AqueousOne Solution Reagent was added to each well containing cells maintained in 100 μL of culture medium.
# [1] = system: Klebsiella pneumoniae ATCC 700603
# Method: as §1
# (§3) The MICs were determined by the broth microdilution method according to the Clinical and Laboratory Standard Institute guidelines. […] The experiments were conducted on 96-well microtiter polystyrene plates (Kartell, Noviglio, Italy). The growth was assessed visually after incubation, and the MIC was assumed as the lowest peptide concentration at which a noticeable growth of microorganisms was inhibited. All experiments were conducted in triplicate.
# [2] = system: Pseudomonas aeruginosa ATCC 9027; settings: ATCC 9027, 24 h
# Method: as §1, §3
# [3] = system: Staphylococcus aureus ATCC 25923
# Method: as §1, §3
# [4] = system: Klebsiella aerogenes ATCC 13048; settings: ATCC 13048, 24 h
# Method: as §1, §3
# [5] = system: Acinetobacter baumannii ATCC BAA 1605; settings: ATCC BAA 1605, 24 h
# Method: as §1, §3
# [6] = system: Enterococcus faecium ATCC 700221; settings: ATCC 700221, 24 h
# Method: as §1, §3
# [7] = Critical aggregation concentration by surface tension (Du Noüy ring, K100 tensiometer); format: physicochemical; settings: unbuffered aqueous solution, 298 K
# Method: The identity of the purified peptides was confirmed with electrospray ionization mass spectrometry (ESI-MS) in positive ion mode. Results of MS analyses and net charge are attached in Supplementary Materials (Table S1). Peptides’ hydrophobicity was evaluated by analytical reversed-phase high-performance liquid chromatography (RP-HPLC). The critical aggregation concentrations (CACs) of the lipopeptides were determined in unbuffered aqueous solution at 298 K by measuring the surface tension as a function of lipopeptide concentration. The measurements were carried out by the Du Noüy ring method on a K100 tensiometer. The surface tension data were plotted against the logarithm of lipopeptide concentration. CAC was found as the intersection of two lines being linear regression of data below and above CAC.
# The critical aggregation concentration (CAC) values were determined fully automatically using a K100 tensiometer (KRUSS, Hamburg, Germany) equipped with two micro dosimeters by measuring the surface tension vs. lipopeptide concentration. The measurements were performed in unbuffered aqueous solution at 298 K using the Du Noüy ring method. The accuracy of the surface tension measurements was 0.1 mN/m. The critical aggregation concentration (CAC) was defined as the intersection of two lines fitted to the experimental data collected before and after the inflection point.
# [8] = system: human red blood cells (hRBCs); test: Hemolysis assay; format: cell-based; settings: red cells of human, 1 h
# Method: The hemolysis assay was performed by using the method reported previously. Fresh human red blood cells (hRBCs) with anticoagulant (EDTA) were rinsed three times with a PBS by centrifugation at 800× g for 10 min and diluted with PBS. The compounds were serially diluted on a 96-well microtiter polystyrene plate, and hRBCs were added up to a final volume of 100 μL. The compound concentration ranged between 0.5 and 256 μg/mL and the final hRBCs concentration was 4% (v/v). Controls for zero (blank) and 100% hemolysis consisted of hRBCs suspended in PBS and 1% of Triton-X 100 (Carl Roth GmbH, Karlsruhe, Germany), respectively. The plate was incubated for 1 h at 37 °C and then centrifuged (800× g, 10 min, 4 °C). Subsequently, the supernatant was […] to new microtiter plates, and the absorbance at 540 nm was measured (Multiskan GO Microplate Spectrophotometer, Thermo Fisher Scientific, Vantaa, Finland). All experiments were conducted in triplicate. HC50 was calculated using an ic50.tk tool. The protocol of the study was approved by the local Bioethics Committee at the Medical University of Gdańsk (NKBBN/262/2019, approval date: 10 June 2019).
SMILES,MIC C. albicans ATCC 10231 (C. albicans ATCC 10231),MIC C. glabrata ATCC 15126 (C. glabrata ATCC 15126),IC50 (HaCaT cells),"MIC Klebsiella pneumoniae ATCC 700603 ([1]; ATCC 700603, 24 h)",MIC Pseudomonas aeruginosa ATCC 9027 [2],"MIC Staphylococcus aureus ATCC 25923 ([3]; ATCC 25923, 24 h)",MIC Klebsiella aerogenes ATCC 13048 [4],MIC Acinetobacter baumannii ATCC BAA 1605 [5],MIC Enterococcus faecium ATCC 700221 [6],CAC [7],Surface Tension at CAC [7],HC50 [8],MIC Klebsiella pneumoniae ATCC 700603 ([1]; planktonic culture),MIC Staphylococcus aureus ATCC 25923 ([3]; planktonic culture)
CCCCCCCCCCCC(=O)N[C@@H](CCCNC(=N)N)C(=O)N[C@@H](CCCNC(=N)N)C(=O)N[C@@H](CSSC[C@H](NC(=O)[C@H](CCCNC(=N)N)NC(=O)[C@H](CCCNC(=N)N)NC(=O)CCCCCCCCCCC)C(N)=O)C(N)=O [Compound C3] (I: Lauroyl-Arg-Arg-Cys-NH2 / II: Lauroyl-Arg-Arg-Cys-NH2; disulfide I:3-II:3),1 µg/mL,2 µg/mL,119.47 ± 6.03 µg/mL,>256 (−/−) µg/mL,8 µg/mL,4 µg/mL,32 µg/mL,64 µg/mL,2 µg/mL,0.25 mM and 305.4 μg/mL,43 mN/m,36.24 ± 2.35 µg/mL,–,–
CCCCCCCC(=O)N[C@@H](CCCC)C(=O)N[C@@H](CCCNC(=N)N)C(=O)N[C@@H](CCCNC(=N)N)C(=O)N[C@@H](CSSC[C@H](NC(=O)[C@H](CCCNC(=N)N)NC(=O)[C@H](CCCNC(=N)N)NC(=O)[C@H](CCCC)NC(=O)CCCCCCC)C(N)=O)C(N)=O [Compound C6] (I: Octanoyl-[Nle]RRC-NH2 / II: Octanoyl-[Nle]RRC-NH2; disulfide I:4-II:4),16 µg/mL,16 µg/mL,248.83 ± 18.81 µg/mL,–,8 µg/mL,2 µg/mL,256 (−/−) µg/mL,32 µg/mL,2 µg/mL,4.28 mM and 5737.7 μg/mL,35 mN/m,>256 µg/mL,64 µg/mL,–
CCCCCCCCCCCCCC(=O)N[C@@H](CCCNC(=N)N)C(=O)N[C@@H](CCCNC(=N)N)C(=O)N[C@@H](CSSC[C@H](NC(=O)[C@H](CCCNC(=N)N)NC(=O)[C@H](CCCNC(=N)N)NC(=O)CCCCCCCCCCCCC)C(N)=O)C(N)=O [Compound C4] (I: Myristoyl-Arg-Arg-Cys-NH2 / II: Myristoyl-Arg-Arg-Cys-NH2; disulfide I:3-II:3),2 µg/mL,1 µg/mL,54.52 ± 15.40 µg/mL,>256 (−/−) µg/mL,64 µg/mL,–,128 µg/mL,32 µg/mL,8 µg/mL,0.06 mM and 71.1 μg/mL,47 mN/m,20.89 ± 1.06 µg/mL,–,64 µg/mL
CCCCCCCCCC(=O)N[C@@H](CCCNC(=N)N)C(=O)N[C@@H](CCCNC(=N)N)C(=O)N[C@@H](CSSC[C@H](NC(=O)[C@H](CCCNC(=N)N)NC(=O)[C@H](CCCNC(=N)N)NC(=O)CCCCCCCCC)C(N)=O)C(N)=O [Compound C2] (I: Decanoyl-Arg-Arg-Cys-NH2 / II: Decanoyl-Arg-Arg-Cys-NH2; disulfide I:3-II:3),4 µg/mL,8 µg/mL,231.17 ± 24.37 µg/mL,>256 (−/−) µg/mL,8 µg/mL,2 µg/mL,128 µg/mL,16 µg/mL,2 µg/mL,3.30 mM and 3832.7 μg/mL,43 mN/m,>256 µg/mL,–,–
CCCCCCCC(=O)N[C@@H](CCCC)C(=O)N[C@@H](CCCNC(=N)N)C(=O)N[C@@H](CCCNC(=N)N)C(=O)NCCCC[C@H](NC(=O)[C@H](CCCNC(=N)N)NC(=O)[C@H](CCCNC(=N)N)NC(=O)[C@H](CCCC)NC(=O)CCCCCCC)C(N)=O [Compound B6] (Octanoyl-[Nle]RRK([Arg-Arg-Nle-Octanoyl])-NH2),16 µg/mL,16 µg/mL,164.17 ± 14.65 µg/mL,64 µg/mL,4 µg/mL,2 µg/mL,256 (−/−) µg/mL,32 µg/mL,2 µg/mL,3.59 mM and 4482.4 μg/mL,37 mN/m,>256 µg/mL,–,–
